The target of series [1] is purified recombinant human topoisomerase II (Homo sapiens, UniProt P11388). Kind of series: Topoisomerase II inhibition assay (cleavage and relaxation). Type of series: biochemical. As to conditions: test compound at 1 mM, 100 μM, or 10 μM; plasmid DNA, agarose gel. Here is the method: Topoisomerase II assay—Plasmid DNA (0.3 μg) was incubated at 37° C. with 4 units of purified recombinant human topoisomerase II in cleavage buffer (30 mM Tris.HCl, pH 7.6, 60 mM NaCl, 3 mM ATP, 15 mM mercaptoethanol, 8 mM MgCl2) with or without the addition of test compound (at 1 mM, 100 μM, or 10 μM final concentration). Reactions were stopped by the immediate addition of SDS (1% w/v final). Samples were treated with proteinase K (30 min at 37° C.) and extracted twice with an equal volume of […] CHCl3/i-amyl alcohol. […] Topoisomerase II inhibition was judged by the production of linear plasmid DNA, representing trapped cleavage intermediate, and by the ratio of substrate (spercoiled DNA) to product (relaxed DNA). A relaxation assay was performed identically, except that the reaction buffer was optimised for the detection of catalysis rather than cleavage, i.e. only 2 units of enzyme were used per sample. The reaction buffer was 50 mM Tris.HCl, pH 8, 120 mM KCl, 0.5 mM ATP, 0.5 mM dithiothreitol, 10 mM MgCl2. Topoisomerase II inhibition was judged by the ratio of substrate (supercoiled DNA) to product (relaxed DNA).
Chain of purified recombinant human topoisomerase II (P11388 whole entry): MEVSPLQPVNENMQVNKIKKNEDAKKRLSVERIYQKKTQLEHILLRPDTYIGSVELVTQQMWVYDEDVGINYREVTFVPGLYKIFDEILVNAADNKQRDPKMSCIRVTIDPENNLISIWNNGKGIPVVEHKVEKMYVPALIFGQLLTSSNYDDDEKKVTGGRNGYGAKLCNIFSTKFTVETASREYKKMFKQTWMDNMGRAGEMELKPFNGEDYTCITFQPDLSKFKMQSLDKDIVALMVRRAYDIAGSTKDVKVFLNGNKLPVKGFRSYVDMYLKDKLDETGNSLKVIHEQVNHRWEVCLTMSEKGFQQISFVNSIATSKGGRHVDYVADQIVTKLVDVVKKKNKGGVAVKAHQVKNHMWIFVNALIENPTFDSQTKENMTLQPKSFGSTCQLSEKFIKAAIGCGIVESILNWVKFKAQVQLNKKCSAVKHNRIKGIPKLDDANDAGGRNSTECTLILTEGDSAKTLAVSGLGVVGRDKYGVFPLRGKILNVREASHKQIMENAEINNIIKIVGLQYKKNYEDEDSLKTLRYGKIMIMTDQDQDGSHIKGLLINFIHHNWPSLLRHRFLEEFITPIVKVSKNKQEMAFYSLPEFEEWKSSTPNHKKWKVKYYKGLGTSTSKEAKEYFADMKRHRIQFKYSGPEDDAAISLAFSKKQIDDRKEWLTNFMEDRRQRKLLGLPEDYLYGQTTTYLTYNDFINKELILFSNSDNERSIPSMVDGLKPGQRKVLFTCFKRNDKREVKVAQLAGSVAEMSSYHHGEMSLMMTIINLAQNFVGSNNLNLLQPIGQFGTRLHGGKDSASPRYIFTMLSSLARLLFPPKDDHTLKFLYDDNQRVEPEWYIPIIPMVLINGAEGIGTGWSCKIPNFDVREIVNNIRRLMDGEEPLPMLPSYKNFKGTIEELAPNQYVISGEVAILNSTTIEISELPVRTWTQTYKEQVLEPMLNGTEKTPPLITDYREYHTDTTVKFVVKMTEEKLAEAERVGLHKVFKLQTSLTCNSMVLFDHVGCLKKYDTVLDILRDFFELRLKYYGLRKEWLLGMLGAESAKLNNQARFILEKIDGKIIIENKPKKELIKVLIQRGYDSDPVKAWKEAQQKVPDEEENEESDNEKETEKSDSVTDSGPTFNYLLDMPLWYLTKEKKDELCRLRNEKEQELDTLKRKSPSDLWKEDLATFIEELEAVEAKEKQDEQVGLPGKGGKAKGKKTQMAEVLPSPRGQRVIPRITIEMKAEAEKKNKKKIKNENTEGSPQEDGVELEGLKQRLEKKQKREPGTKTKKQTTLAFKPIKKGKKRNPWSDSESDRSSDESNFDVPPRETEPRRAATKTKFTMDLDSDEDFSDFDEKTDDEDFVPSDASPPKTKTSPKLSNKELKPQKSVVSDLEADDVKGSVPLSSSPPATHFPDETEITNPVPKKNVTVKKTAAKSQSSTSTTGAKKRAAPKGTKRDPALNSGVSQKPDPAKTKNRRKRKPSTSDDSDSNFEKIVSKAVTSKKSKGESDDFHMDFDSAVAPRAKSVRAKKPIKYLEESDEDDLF

Series [2] in a line: Carcinoma cell line panel, SRB-assay. On the procedure: After incubation for 96 h, cytotoxicity was assessed using a standard SRB-assay.

A value given as a limit tells only on which side of the number the result lay.

A word on the IC50: it is the concentration that inhibits the measured activity by half.

Take “4′-Demethyl-4-[4″-aminoanilino-(succinimidopropionoyl)-(H-Cys-βAla-Arg-Arg-Met-Lys-Trp-Lys-Lys-NH2)]epipodophyllotoxin”: the Activity observed result in series [1] is listed as “I”.
Consider `COc1cc([C@@H]2c3cc4c(cc3[C@@H](Nc3ccc(N)cc3)[C@H]3COC(=O)[C@H]23)OCO4)cc(OC)c1O` [4′-Demethyl-4-(4″-aminoanilino)epipodophyllotoxin], for which, in series [1], the Activity observed result was “I”.
Take `CC[C@H](C)[C@H](NC(=O)[C@H](CCCCN)NC(=O)[C@@H](NC(=O)[C@H](CCC(N)=O)NC(=O)[C@H](CCCNC(=N)N)NC(=O)[C@@H](N)CSC1CC(=O)N(CCC(=O)O[C@H]2C[C@H]3OC[C@@]3(OC(C)=O)[C@H]3[C@H](OC(=O)c4ccccc4)[C@]4(O)C[C@H](OC(=O)[C@H](O)[C@@H](NC(=O)c5ccccc5)c5ccccc5)C(C)=C([C@@H](OC(C)=O)C(=O)[C@]23C)C4(C)C)C1=O)[C@@H](C)CC)C(=O)N[C@@H](Cc1c[nH]c2ccccc12)C(=O)N[C@@H](Cc1ccccc1)C(=O)N[C@@H](CCC(N)=O)C(=O)N[C@@H](CC(N)=O)C(=O)N[C@@H](CCCNC(=N)N)C(=O)N[C@@H](CCCNC(=N)N)C(=O)N[C@@H](CCSC)C(=O)N[C@@H](CCCCN)C(=O)N[C@@H](Cc1c[nH]c2ccccc12)C(=O)N[C@@H](CCCCN)C(=O)N[C@@H](CCCCN)C(=O)O` (stereo partly drawn) [7-Paclitaxel Vector Conjugate]: the IC50 at 96 h in series [2] was over 25 µM.

For the origin of these results see patent publication US6992169B2, “Carrier based drug delivery system” (Cyclacel Limited, priority 1998, dated 2006).
